We go through 18 compounds from patent US20230148450A9, “BICYCLIC HETEROARYL COMPOUNDS AND USES THEREOF” (Revolution Medicines, Inc., priority 2019, published 2023).

The term IC50 denotes the concentration at which inhibition is half-maximal. For orientation: Kd means the equilibrium constant for the complex coming apart.

Test [1] has as its target T1, SOS1 nucleotide exchange of KRAS (catalytic domain of SOS1, residues 564-1049; wild-type KRAS) (Homo sapiens, UniProt Q07889).
T1 construct: tagless catalytic domain of SOS1 (residues 564-1049)
T1 sequence (Q07889 564-1049): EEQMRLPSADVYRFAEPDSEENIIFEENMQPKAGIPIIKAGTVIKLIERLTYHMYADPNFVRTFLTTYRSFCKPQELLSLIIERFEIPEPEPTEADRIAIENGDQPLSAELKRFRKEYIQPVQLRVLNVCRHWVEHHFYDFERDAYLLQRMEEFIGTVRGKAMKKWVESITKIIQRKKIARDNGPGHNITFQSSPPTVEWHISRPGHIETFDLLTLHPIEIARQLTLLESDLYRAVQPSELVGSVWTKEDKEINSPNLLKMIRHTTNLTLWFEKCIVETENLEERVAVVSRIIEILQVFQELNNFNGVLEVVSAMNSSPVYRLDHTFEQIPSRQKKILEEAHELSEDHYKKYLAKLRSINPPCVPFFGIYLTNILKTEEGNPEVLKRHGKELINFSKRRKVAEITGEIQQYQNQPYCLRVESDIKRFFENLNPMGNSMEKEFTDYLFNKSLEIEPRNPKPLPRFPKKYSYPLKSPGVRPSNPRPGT
Kind of test: Mode of Action Assay: Inhibition of SOS1 Nucleotide Exchange Activity (TR-FRET). Type of test: biochemical. Conditions: TR-FRET signal. As for the experimental part: The purpose of this assay was to characterize the inhibitory activity of compounds on SOS1 nucleotide exchange of KRAS. Data was reported as IC50 values based on the TR-FRET signal.
Note—the following protocol describes a procedure for monitoring the inhibition of SOS1 nucleotide exchange activity of wild-type KRAS in response to a compound of the invention. Other KRAS mutants and RAS isoforms maybe employed.
In assay buffer containing 20 mM HEPES, pH 7.5, 150 mM NaCl, 5 mM MgCl2, 0.05% Tween-20, 0.1% BSA, 1 mM DTT, concentration series of test compounds were generated spanning 100 μM to 1.7 nM over eleven 3-fold serial dilutions in a 384-well assay plate at a volume of 20 μL. The purified tagless catalytic domain of SOS1 (residues 564-1049) was first diluted in assay buffer at a concentration of 100 nM, and then 20 μL of the SOS1 containing solution was directly dispensed into compound plates. The SOS1/compound mixture was incubated at room temperature with constant mixing on an orbital shaker for 20 minutes to allow the reaction to reach equilibrium. A KRAS mixture was prepared by diluting 66.7 nM avi-tagged KRAS (residue 1-169), 3.33 nM Streptavidin-Tb and 333 nM EDA-GTP-DY-647P1 in assay buffer. This mixture was prepared immediately before addition to the SOS1/compound mixture to prevent intrinsic nucleotide exchange. Then 5 μL of the pre-incubated SOS1/compound mixture and 7.5 μL of the KRAS mixture were added sequentially in a 384-well low volume black round bottom plate and incubated at room temperature with constant shaking for 30 minutes. Time-resolved fluorescence was measured on a PerkinElmer Envision plate reader. DMSO and 10 μM of compound (i) were used as negative and positive controls, respectively.
Three replicates were performed for each compound. Data were normalized by the following: (Positive control—Sample signal)/(Positive control—negative control)*100. The data were fit using a four-parameter logistic fit.

The target of test [2] is T2, SOS1 catalytic domain (residues 564-1049) (Homo sapiens, UniProt Q07889).
T2 construct: SOS1 catalytic domain (residues 564-1049) immobilized on a sensor chip
T2 sequence (Q07889 564-1049): T1 sequence (Q07889 564-1049)
Put plainly: Binding affinity to SOS1 using Surface Plasmon Resonance (SPR). Conditions: avi-tagged SOS1 catalytic domain immobilized on sensor chip; read-out: SOS1 SPR Equilibrium Kd. An excerpt:
Potency Assay: Measurement of the Binding Affinity of Compounds of the Invention to SOS! using Surface Plasmon Resonance (SPR)
The purpose of the SPR assay was to measure the direct binding of compounds to SOS1 catalytic domain (residues 564-1049) immobilized on a sensor chip. Data was reported as equilibrium dissociation constant (Kd) values.
Using a GE Biacore 8K SPR instrument, avi-tagged SOS1 catalytic domain protein was immobilized to a level of approximately 6000 response units (RU) on a streptavidin-coated SPR sensor chip in assay buffer containing 0.01 M HEPES, 0.15 M NaCl and 0.05% v/v Surfactant P20. In assay buffer containing 2% DMSO, concentration series of test compounds were generated spanning 5 μM to 4.9 nM over ten 2-fold dilutions. For each test compound, a separate 0 μM sample was generated for use during subsequent double reference subtraction. Serially for each test compound, individual dilution samples were flowed over the immobilized SOS1 protein at a flow rate of 50 μL/minute to monitor the association with SOS1. Dissociation of bound test compound from the SOS1 protein was immediately monitored by flowing assay buffer over the sensor surface and monitoring the decrease in binding signal back to the baseline level seen in the absence of compound. This was repeated for all compound dilutions in each series. The binding level response for each test compound concentration was noted immediately prior to the end of the association phase, and a secondary plot generated showing binding response level versus test compound concentration generated for each compound dilution series.

The test system of test [3] is cellular pERK in PC-9 cells (EGFR Ex19Del). Kind of test: Potency Assay: pERK. Conditions: Homo sapiens, read-out: SOS1 pERK IC50. Format: cell-based. An excerpt: The purpose of this assay is to measure the ability of test compounds to inhibit SOS1 function in cells. SOS1 activates RAS proteins by catalyzing the conversion of […] to […] in response to receptor tyrosine kinase activation. Activation of RAS induces a sequence of cellular signaling events that results in increased phosphorylation of ERK at […] (pERK). The procedure described below measures the level of cellular pERK in response to test compounds in PC-9 cells (EGFR Ex[…]). PC-9 cells were grown and maintained using media and procedures recommended by the ATCC. On the day prior to compound addition, cells were plated in 384-well cell culture plates (40 μL/well) and grown overnight in a 37° C., 5% CO2 incubator. Test compounds were prepared in 10, 3-fold dilutions in DMSO, with a top concentration of 10 mM. On the day of the assay, 40 nL of test compound was added to each well of cell culture plate using an Echo550 liquid handler (LabCyte). Concentrations of test compound were tested in duplicate with highest test concentration being 10 μM. After compound addition, cells were incubated for 1 hour at 37° C., 5% CO2. Following incubation, culture medium was removed and cells were washed once with phosphate buffered saline. Cellular pERK level was determined using the AlphaLISA SureFire Ultra p-ERK1/2 Assay Kit (PerkinElmer). Cells were lysed in 25 μL lysis buffer, with shaking at 600 RPM at room temperature for 15 minutes. Lysate (10 μL) was transferred to a 384-well Opti-plate (PerkinElmer) and 5 μL acceptor mix was added. The plate was centrifuged at 1000 RPM for 1 minute, and incubated in the dark for 2 hours. Following this incubation, 5 μL of donor mix was added, the plate was sealed and centrifuged at 1000 RPM for 1 minute, and the mixture was incubated for 2 hours at room temperature. Signal was read on an Envision plate reader (PerkinElmer) using standard AlphaLISA settings. Analysis of raw data was carried out in Excel (Microsoft) and Prism (GraphPad). Signal was plotted vs. the decadal logarithm of compound concentration, and IC50 was determined by fitting a 4-parameter sigmoidal concentration response model.

The mark [4] stands for this setting: PC-9 cells (EGFR Ex19Del), 1 hour incubation, AlphaLISA p-ERK1/2.

Like-named read-outs stand apart in the source and are kept apart here.

As to `Cc1cn2nc(C(=O)N3CCN(C4COC4)CC3)cc2c(N[C@H](C)c2cc(N)cc(C(F)(F)F)c2)n1` [Example 76], the 50% inhibitory concentration (IC50) in test [1] and in test [3] (setting [4]) was under 1000 nM in each case. Besides, the Kd in test [2] is at most 400 nM.
Take `CNCc1cc2c(N[C@H](C)c3cc(N)cc(C(F)(F)F)c3)nc(C)nn2c1` [Example 28, N-[(1R)-1-[3-amino-5-(trifluoromethyl)phenyl]ethyl]-2-methyl-6-(methylaminomethyl)pyrrolo[2,1-f][1,2,4]triazin-4-amine]: the Kd in test [2] was over 400 nM. In test [3] (setting [4]), the IC50 is under 1000 nM.
Regarding `C[C@@H](Nc1nccc2nc(C(=O)N3CC4(C3)CN(C3COC3)C4)cn12)c1cccc(C(F)F)c1F` [Example 88], the IC50 in test [1] and in test [3] (setting [4]) was under 1000 nM throughout. Further, the equilibrium dissociation constant (Kd) in test [2] is at most 400 nM.
For `C[C@@H](Nc1nc(Cl)nn2cc(C(=O)N3CCN(C)CC3)cc12)c1cccc(C(F)(F)F)c1` [Example 95], the IC50 in test [1] and in test [3] (setting [4]) was over 1000 nM each time.
In the case of `C[C@@H](Nc1ncnc2cc(C(=O)N3CCOCC3)sc12)c1cc(N)cc(C(F)(F)F)c1` [Example 31, [4-[[(1R)-1-[3-amino-5-(trifluoromethyl)phenyl]ethyl]amino]thieno[3,2-d]pyrimidin-6-yl]-morpholino-methanone], the half-inhibitory concentration (IC50) in test [1] and in test [3] (setting [4]) was over 1000 nM throughout. Also, the dissociation constant (Kd) in test [2] was at most 400 nM.
On to `Cc1nc(N[C@H](C)c2cc(N)cc(C(F)(F)F)c2)c2cc([C@]3(O)CC[C@H](C(=O)N(C)C)CC3)cn2n1` [Example 66, 4-[4-[[(1R)-1-[3-amino-5-(trifluoromethyl)phenyl]ethyl]amino]-2-methyl-pyrrolo[2,1-f][1,2,4]triazin-6-yl]-4-hydroxy-N,N-dimethylcyclohexanecarboxamide], for which the equilibrium dissociation constant (Kd) in test [2] is at most 400 nM. Besides, the half-inhibitory concentration (IC50) in test [3] (setting [4]) was over 1000 nM.
For `C[C@@H](Nc1cc(Cl)nc2nc(C(=O)N3CCOCC3)cn12)c1cc(N)cc(C(F)(F)F)c1` [Example 48, [5-[[(1R)-1-[3-amino-5-(trifluoromethyl)phenyl]ethyl]amino]-7-chloro-imidazo[1,2-a]pyrimidin-2-yl]-morpholino-methanone], the Kd in test [2] was over 400 nM. The half-maximal inhibitory concentration (IC50) in test [3] (PC-9, 1 h) was under 1000 nM.
For the compound `Cc1cn2nc(C(=O)N3CC4CCC(C3)N4C)cc2c(N[C@H](C)c2cc(N)cc(C(F)(F)F)c2)n1` [Example 78], the IC50 in test [1] and in test [3] (setting [4]) was under 1000 nM each time.
For `C[C@@H](Nc1ncnc2c1cc(C1CCNCC1)n2C)c1cc(N)cc(C(F)(F)F)c1` [Example 38, N-[(1R)-1-[3-amino-5-(trifluoromethyl)phenyl]ethyl]-7-methyl-6-(4-piperidyl)pyrrolo[2,3-d]pyrimidin-4-amine], the IC50 in test [3] (setting [4]) was over 1000 nM.
For `C[C@@H](Nc1nc(Cl)nn2cc(C(=O)N3CCN(C)CC3)cc12)c1cccc(C(F)F)c1F` [Example 98], the IC50 in test [1] and in test [3] (setting [4]) was under 1000 nM throughout.
Turning to `C[C@@H](Nc1ncnc2cc(C3=CCNCC3)sc12)c1cc(N)cc(C(F)(F)F)c1` [Example 49, N-[(1R)-1-[3-amino-5-(trifluoromethyl)phenyl]ethyl]-6-(1,2,3,6-tetrahydropyridin-4-yl)thieno[3,2-d]pyrimidin-4-amine], the half-maximal inhibitory concentration (IC50) in test [1] and in test [3] (setting [4]) was over 1000 nM throughout.
With `COc1cc2c(N[C@H](C)c3cc(N)cc(C(F)(F)F)c3)nc(C)nn2c1` [Example 30, N-[(1R)-1-[3-amino-5-(trifluoromethyl)phenyl]ethyl]-6-methoxy-2-methyl-pyrrolo[2,1-f]-[1,2,4]triazin-4-amine], the Kd in test [2] is over 400 nM. Also, the 50% inhibitory concentration (IC50) in test [3] (setting [4]) was over 1000 nM.
On to `C[C@@H](Nc1nc(Cl)nn2cc(C(=O)N3CCOCC3)cc12)c1cc(N)cc(C(F)(F)F)c1` [Example 68], for which the half-inhibitory concentration (IC50) in test [3] (setting [4]) was under 1000 nM.
Take `C[C@@H](Nc1nc(Cl)nn2cc(C(=O)N3CC4(COC4)C3)cc12)c1cccc(C(F)(F)F)c1` [Example 96]: the 50% inhibitory concentration (IC50) in test [1] is over 1000 nM; in test [3] (setting [4]) it was under 1000 nM.
For `C[C@@H](Nc1nccc2sc(C3=CCNCC3)cc12)c1cc(N)cc(C(F)(F)F)c1` [Example 56, N-[(1R)-1-[3-amino-5-(trifluoromethyl)phenyl]ethyl]-2-(1,2,3,6-tetrahydropyridin-4-yl)thieno[3,2-c]pyridin-4-amine], in that order: over 1000 nM and over 1000 nM.
The like results for `C[C@@H](Nc1nc(Cl)cn2cc(C(=O)N3CCOCC3)cc12)c1cc(N)cc(C(F)(F)F)c1` [Example 102, N-[(1R)-1-[3-amino-5-(trifluoromethyl)phenyl]ethyl]-3-chloro-7-(morpholine-4-carbonyl)pyrrolo [1,2-a]pyrazin-1-amine] were, in that order, over 1000 nM and over 1000 nM.
The like results for `C[C@@H](Nc1nc(Cl)nn2cc(C(=O)N3CCN(C)CC3)cc12)c1cc(N)cc(C(F)(F)F)c1` [Example 94, N-[(1R)-1-[3-amino-5-(trifluoromethyl)-phenyl]ethyl]-2-chloro-6-(4-methylpiperazine-1-carbonyl)pyrrolo[2,1-f][1,2,4]triazin-4-amine] were, in that order, under 1000 nM and under 1000 nM.
As for `Cc1cn2nc(C(=O)N3CCN(C)CC3)cc2c(N[C@H](C)c2cccc(C(F)(F)F)c2)n1` [Example 61], the IC50 in test [1] and in test [3] (setting [4]) was over 1000 nM in each case.
